Measured values from ChEMBL document CHEMBL5532748, “Design, synthesis and antibacterial activity evaluation of ebselen derivatives in NDM-1 producing bacteria” (RSC Med Chem, 2024).
Values after ≈ are worked out from the molar mass of the structure shown. Active and inactive are the calls of the source. The calls are words filed in the database; no cut-off is given here.

Columns and labels:
Escherichia coli [1] = assay: Antibacterial activity against Escherichia coli TG-1 transfected with Klebsiella pneumoniae full-length NDM-1 beta-lactamase gene; type: functional
Escherichia coli [2] = assay: Antibacterial activity against Escherichia coli TG-1 transfected with Klebsiella pneumoniae full-length NDM-1 beta lactamase gene incubated in presence of meropenem; type: functional
Escherichia coli [3] = assay: Synergistic antibacterial activity against Escherichia coli TG-1 transfected with Klebsiella pneumoniae full-length NDM-1 beta lactamase gene assessed as fractional inhibitory concentration index in presence of meropenem; type: functional
Escherichia coli [4] = assay: Antibacterial activity against Escherichia coli BJE-4 expressing NDM-1 gene; type: functional
Escherichia coli [5] = assay: Antibacterial activity against Escherichia coli BJE-4 expressing NDM-1 gene in presence of meropenem; type: functional
Escherichia coli [6] = assay: Synergistic antibacterial activity against Escherichia coli BJE-4 expressing NDM-1 gene assessed as fractional inhibitory concentration index in presence of meropenem; type: functional
[7] = biological target: Metallo-beta-lactamase type 2 (Bacteria, UniProt C7C422); assay: Inhibition of NDM-1 (unknown origin) using nitrocefin as substrate incubated for 15 to 60 mins by absorption based analysis
Chain of Metallo-beta-lactamase type 2 (C7C422 whole entry): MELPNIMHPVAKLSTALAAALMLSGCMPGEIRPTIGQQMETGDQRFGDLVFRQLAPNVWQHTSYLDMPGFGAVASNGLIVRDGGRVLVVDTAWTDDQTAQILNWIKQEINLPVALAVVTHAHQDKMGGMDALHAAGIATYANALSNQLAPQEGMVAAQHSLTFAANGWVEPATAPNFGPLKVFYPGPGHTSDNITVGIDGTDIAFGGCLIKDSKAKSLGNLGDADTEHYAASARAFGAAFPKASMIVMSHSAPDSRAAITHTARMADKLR

Escherichia coli [8] = assay: Antibacterial activity against Escherichia coli producing NDM-1 and CTX-M-15 beta lactamases; type: functional
Escherichia coli [9] = assay: Antibacterial activity against Escherichia coli producing NDM-1, CTX-M-15 and SHV-12 beta lactamases; type: functional
Citrobacter freundii [10] = assay: Antibacterial activity against Citrobacter freundii producing NDM-1 and SHV-12 beta-lactamases; type: functional
Citrobacter freundii [11] = assay: Antibacterial activity against Citrobacter freundii producing NDM-1, CTX-M-3 and KPC-2 beta-lactamases; type: functional
Enterobacter cloacae [12] = assay: Antibacterial activity against Enterobacter cloacae producing NDM-1, CTX-M-14 and TEM-1 beta-lactamases; type: functional
Enterobacter cloacae [13] = assay: Antibacterial activity against Enterobacter cloacae producing NDM-1, IMP-4 and TEM-1 beta-lactamases; type: functional
Escherichia coli [14] = assay: Antibacterial activity against Escherichia coli TG-1; type: functional
Enterobacter cloacae [15] = assay: Antibacterial activity against Enterobacter cloacae producing NDM-1, TEM-1 and SHV-12 beta-lactamases; type: functional
Klebsiella pneumoniae = assay: Antibacterial activity against Klebsiella pneumoniae producing NDM-1, KPC-2 and SHV-12 beta-lactamases; type: functional
Caco-2 = assay: Antibacterial activity against Salmonella lomita SL131 infected in human Caco-2 cells assessed as reduction in bacterial survival rate at 64 ug/ml incubated for 6 hrs by agar dilution method; type: functional, cell-based; settings: Salmonella enterica subsp. enterica serovar Lomita, dose 64.0 µg/ml
HEK-293T = assay: Cytotoxicity against HEK293T cells assessed as reduction in cell viability at 8 to 64 ug/ml incubated for 48 hrs by MTT assay; type: toxicity, cell-based; settings: human, dose 8-64 µg/ml

Structure (SMILES)	MIC (Escherichia coli [1]) [µg/mL]	MIC (Escherichia coli [2]) [µg/mL]	fractional inhibitory concentration index (FICI) (Escherichia coli [3])	MIC (Escherichia coli [4]) [µg/mL]	MIC (Escherichia coli [5]) [µg/mL]	fractional inhibitory concentration index (FICI) (Escherichia coli [6])	IC50 [7] [µM]	MIC (Escherichia coli [8]) [µg/mL]	MIC (Escherichia coli [9]) [µg/mL]	MIC (Citrobacter freundii [10]) [µg/mL]	MIC (Citrobacter freundii [11]) [µg/mL]	MIC (Enterobacter cloacae [12]) [µg/mL]	MIC (Enterobacter cloacae [13]) [µg/mL]	MIC (Escherichia coli [14]) [µg/mL]	MIC (Enterobacter cloacae [15]) [µg/mL]	MIC (Klebsiella pneumoniae) [µg/mL]	Activity (Caco-2)	Activity (HEK-293T)
CC(C)(C)OC(=O)N1CC[C@@H](n2[se]c3ccccc3c2=O)C1	> 64	≤ 8	0.25	> 16	8	0.625	–	–	–	–	–	–	–	–	–	–	–	–
CN(C)S(=O)(=O)NCCn1[se]c2ccccc2c1=O	> 64	≤ 8	0.25	> 16	8	0.625	–	–	–	–	–	–	–	–	–	–	–	–
Cc1ccc(S(=O)(=O)NCCn2[se]c3ccccc3c2=O)cc1	> 64	≤ 8	0.25	> 16	8	0.625	–	–	–	–	–	–	–	–	–	–	–	–
CC(C)(C)OC(=O)NCCCn1[se]c2ccccc2c1=O	> 64	16	0.5	> 16	8	0.625	–	–	–	–	–	–	–	–	–	–	–	–
CC(C)(C)OC(=O)NCCCCCn1[se]c2ccccc2c1=O	> 64	16	0.5	> 16	8	0.625	–	–	–	–	–	–	–	–	–	–	–	–
COC(=O)c1cccc(-n2[se]c3ccccc3c2=O)c1	> 64	≤ 8	0.25	> 16	8	0.625	3.63	–	–	–	–	–	–	–	–	–	–	–
COC(=O)c1ccc(-n2[se]c3ccccc3c2=O)cc1C	> 64	16	0.5	> 16	8	0.625	–	–	–	–	–	–	–	–	–	–	–	–
O=c1c2ccccc2[se]n1-c1ccc(-c2ccccc2)cc1	64 (≈ 183 µM)	64	2	> 16	8	0.625	–	–	–	–	–	–	–	–	–	–	–	–
CCc1ccc(-n2[se]c3ccccc3c2=O)cc1	> 64	64	2	> 16	8	0.625	–	–	–	–	–	–	–	–	–	–	–	–
CC(C)(C)c1ccc(S(=O)(=O)NCCn2[se]c3ccccc3c2=O)cc1	> 64	≤ 8	0.25	> 16	8	0.625	–	–	–	–	–	–	–	–	–	–	–	–
CCS(=O)(=O)NCCn1[se]c2ccccc2c1=O	> 64	16	0.5	> 16	8	0.625	–	–	–	–	–	–	–	–	–	–	–	–
O=c1c2ccccc2[se]n1CCNS(=O)(=O)c1ccc(F)cc1	> 64	≤ 8	0.25	> 16	8	0.625	–	–	–	–	–	–	–	–	–	–	–	–
CC(C)(C)OC(=O)N1CCC(n2[se]c3ccccc3c2=O)CC1	> 64	16	0.5	> 16	8	0.625	–	–	–	–	–	–	–	–	–	–	–	–
CC(C)(C)OC(=O)NCCCCn1[se]c2ccccc2c1=O	> 64	32	1	> 16	8	0.625	–	–	–	–	–	–	–	–	–	–	–	–
COc1ccc(S(=O)(=O)NCCn2[se]c3ccccc3c2=O)cc1	> 64	≤ 8	0.25	> 16	8	0.625	–	–	–	–	–	–	–	–	–	–	–	–
CS(=O)(=O)c1ccc(-n2[se]c3ccccc3c2=O)cc1	> 64	≤ 8	0.25	> 16	8	0.625	7.29	–	–	–	–	–	–	–	–	–	–	–
CC(C)(C)C(=O)NCCn1[se]c2ccccc2c1=O	> 64	64	2	> 16	8	0.625	–	–	–	–	–	–	–	–	–	–	–	–
CC(C)(C)OC(=O)NCCn1[se]c2ccccc2c1=O	> 64	16	0.5	> 16	8	0.625	1.26	–	–	–	–	–	–	–	–	–	–	–
C[C@@H](O)[C@H]1C(=O)N2C(C(=O)O)=C(S[C@@H]3CN[C@H](C(=O)N(C)C)C3)[C@H](C)[C@H]12 [MEROPENEM]	> 64	–	–	> 16	–	–	–	> 64	> 64	64 (≈ 167 µM)	> 64	64 (≈ 167 µM)	64 (≈ 167 µM)	0.5 (≈ 1.3 µM)	64 (≈ 167 µM)	> 64	inactive	–
CSc1nnc(-n2[se]c3ccccc3c2=O)s1	> 64	≤ 8	0.25	> 16	8	0.625	8.8	–	–	–	–	–	–	–	–	–	–	–
O=c1c2ccccc2[se]n1CCNS(=O)(=O)c1ccc(Cl)c([N+](=O)[O-])c1	> 64	16	0.5	> 16	8	0.625	–	–	–	–	–	–	–	–	–	–	–	–
COC(=O)c1ccc(-n2[se]c3ccccc3c2=O)cc1OC	> 64	≤ 8	0.25	> 16	4	0.313	7.81	–	–	–	–	–	–	–	–	–	–	Non-Toxic
CC(C)(C)C(=O)NCCCn1[se]c2ccccc2c1=O	> 64	16	0.5	> 16	8	0.625	–	–	–	–	–	–	–	–	–	–	–	–
